Experimental data: patent US8026257B2 (Bristol-Myers Squibb Company, priority 2007, dated 2011)
Where a name gives a salt, the structure may show the parent alone.

What was measured:
[1] = molecular target: T1, NK-1 (Homo sapiens, UniProt P25103); assay: NK1 radioligand binding assay ([125I]Substance P, U373 membranes); conditions: U373 cell membranes, 200 pM [125I]Substance P, 1 hour at room temperature
T1 construct: 30 ul/well of a 2×U373 membrane preparation
In short: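 U373 cell membranes incubated 1 h at room temperature with [125I]Substance P at its Kd (added as 400 pM 2× solution) in Tris-Cl pH 7.5 with MgCl2, BSA, bacitracin and protease inhibitors. Bound radioligand collected on PEI-treated GF/B filters and counted. IC50 from four-parameter fit of triplicates; L-733,060 defined 100% inhibition.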

[2] = molecular target: hSERT (Homo sapiens, UniProt P31645); assay: SERT radioligand binding assay ([125I]RTI-55, HEK-hSERT membranes); conditions: HEK-293 hSERT membranes, 260 pM [125I]RTI-55, 1 hour at room temperature; read-out: SERT IC50
Chain of hSERT (P31645 whole entry): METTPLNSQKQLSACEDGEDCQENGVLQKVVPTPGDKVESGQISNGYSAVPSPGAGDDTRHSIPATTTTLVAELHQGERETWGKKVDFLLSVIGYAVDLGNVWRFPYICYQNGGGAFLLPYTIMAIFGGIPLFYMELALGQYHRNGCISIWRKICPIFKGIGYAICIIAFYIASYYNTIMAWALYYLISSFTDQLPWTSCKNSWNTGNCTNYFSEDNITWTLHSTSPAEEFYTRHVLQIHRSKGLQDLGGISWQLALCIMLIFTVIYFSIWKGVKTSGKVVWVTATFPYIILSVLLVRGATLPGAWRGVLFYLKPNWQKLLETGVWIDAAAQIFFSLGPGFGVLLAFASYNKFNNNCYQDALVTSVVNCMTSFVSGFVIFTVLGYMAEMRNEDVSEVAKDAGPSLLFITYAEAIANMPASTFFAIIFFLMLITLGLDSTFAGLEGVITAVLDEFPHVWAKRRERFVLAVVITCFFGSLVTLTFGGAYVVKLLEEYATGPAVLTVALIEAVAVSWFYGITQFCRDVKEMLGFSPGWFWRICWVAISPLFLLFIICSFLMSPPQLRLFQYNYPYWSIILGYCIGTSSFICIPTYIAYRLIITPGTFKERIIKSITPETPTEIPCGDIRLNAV
In short: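 Crude membranes from HEK-293 cells expressing hSERT (15 ug/ml, 2× stock) were incubated 1 hour at room temperature with [125I]RTI-55 (520 pM, 2× stock; at Kd) in pH 7.5 Tris, 120 mM NaCl, 5 mM KCl. Bound ligand was collected by GF/B filtration and scintillation counted. IC50 came from four-parameter fit, fluoxetine defining 100% inhibition.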

T1 sequence (P25103 whole entry): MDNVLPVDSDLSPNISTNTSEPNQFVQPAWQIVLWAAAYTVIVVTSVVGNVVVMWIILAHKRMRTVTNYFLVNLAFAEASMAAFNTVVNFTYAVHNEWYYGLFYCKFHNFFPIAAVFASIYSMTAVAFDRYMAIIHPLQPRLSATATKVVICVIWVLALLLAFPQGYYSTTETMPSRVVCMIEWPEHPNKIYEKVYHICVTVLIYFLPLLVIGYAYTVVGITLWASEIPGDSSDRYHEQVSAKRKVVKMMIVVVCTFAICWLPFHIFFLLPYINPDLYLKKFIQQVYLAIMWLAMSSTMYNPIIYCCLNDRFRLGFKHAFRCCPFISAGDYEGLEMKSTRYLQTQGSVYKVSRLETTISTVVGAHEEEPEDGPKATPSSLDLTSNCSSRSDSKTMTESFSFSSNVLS

Compound | IC50 [1] [nM] | IC50 [2] [nM]
CN1CCC(COCc2nc3cc(Br)ccc3n2CC2CC2)(c2ccccc2)CC1 [Example 82, 5-Bromo-1-(cyclopropylmethyl)-2-(((1-methyl-4-phenylpiperidin-4-yl)methoxy)methyl)-1H-benzo[d]imidazole] | > 300 | 0.01 to 100
CN1CCC(COCc2nc3ccc(Br)cc3n2CC2CC2)(c2ccccc2)CC1 [Example 83, 6-Bromo-1-(cyclopropylmethyl)-2-(((1-methyl-4-phenylpiperidin-4-yl)methoxy)methyl)-1H-benzo[d]imidazole] | > 300 | 0.01 to 100
CN1CCC(COCc2nc3cc(-c4ccc(Cl)cc4Cl)ccc3n2CC2CC2)(c2ccccc2)CC1 [Example 84, 1-(Cyclopropylmethyl)-5-(2,4-dichlorophenyl)-2-(((1-methyl-4-phenylpiperidin-4-yl)methoxy)methyl)-1H-benzo[d]imidazole] | > 300 | 0.01 to 100
CN1CCC(COCc2nc3ccc(C4CC4)cc3n2CC2CC2)(c2ccccc2)CC1 [Example 85, 6-Cyclopropyl-1-(cyclopropylmethyl)-2-(((1-methyl-4-phenylpiperidin-4-yl)methoxy)methyl)-1H-benzo[d]imidazole] | > 300 | 0.01 to 100
CN1CCC(COCc2nc3cc(C(F)(F)F)ccc3n2CC2CC2)(c2ccccc2)CC1 [Example 86, 1-(Cyclopropylmethyl)-2-(((1-methyl-4-phenylpiperidin-4-yl)methoxy)methyl)-5-(trifluoromethyl)-1H-benzo[d]imidazole] | > 300 | 0.01 to 100
CN1CCC(COCc2nc3ccc(C(F)(F)F)cc3n2CC2CC2)(c2ccccc2)CC1 [Example 87, 1-(Cyclopropylmethyl)-2-(((1-methyl-4-phenylpiperidin-4-yl)methoxy)methyl)-6-(trifluoromethyl)-1H-benzo[d]imidazole] | > 300 | 0.01 to 100
COC(=O)C(OCC1(c2ccc(F)cc2)CCN(C)CC1)c1cc(Cl)cc2cn[nH]c12 (stereo not shown) [Example 89, Methyl 2-(5-chloro-1H-indazol-7-yl)-2-((4-(4-fluorophenyl)-1-methylpiperidin-4-yl)methoxy)acetate trifluoroacetic acid salt] | > 300 | 0.01 to 100
CN1CCC(COC(C(=O)O)c2cc(Cl)cc3cn[nH]c23)(c2ccc(F)cc2)CC1 (stereo not shown) [Example 90, 2-(5-Chloro-1H-indazol-7-yl)-2-((4-(4-fluorophenyl)-1-methylpiperidin-4-yl)methoxy)acetic acid trifluoroacetic acid salt] | > 300 | 0.01 to 100
CN1CCC(COC(C(=O)N(C)C)c2cc(Cl)cc3cn[nH]c23)(c2ccc(F)cc2)CC1 (stereo not shown) [Example 91, 2-(5-Chloro-1H-indazol-7-yl)-2-((4-(4-fluorophenyl)-1-methylpiperidin-4-yl)methoxy)-N,N-dimethylacetamide trifluoroacetic acid salt] | > 300 | 0.01 to 100
CN1CCC(COC(CO)c2cc(Cl)cc3cn[nH]c23)(c2ccc(F)cc2)CC1 (stereo not shown) [Example 92, 2-(5-Chloro-1H-indazol-7-yl)-2-((4-(4-fluorophenyl)-1-methylpiperidin-4-yl)methoxy)ethanol trifluoroacetic acid salt] | 0.01 to 100 | 0.01 to 100
COCC(OCC1(c2ccc(F)cc2)CCN(C)CC1)c1cc(Cl)cc2cn[nH]c12 (stereo not shown) [Example 93, 5-Chloro-7-(1-((4-(4-fluorophenyl)-1-methylpiperidin-4-yl)methoxy)-2-methoxyethyl)-1H-indazole trifluoroacetic acid salt] | 0.01 to 100 | 0.01 to 100
CN1CCC(COC(CF)c2cc(Cl)cc3cn[nH]c23)(c2ccc(F)cc2)CC1 (stereo not shown) [Example 94, 5-Chloro-7-(2-fluoro-1-((4-(4-fluorophenyl)-1-methylpiperidin-4-yl)methoxy)ethyl)-1H-indazole] | 0.01 to 100 | 0.01 to 100
CN1CCC(COC(C#N)c2cc(Cl)cc3cn[nH]c23)(c2ccc(F)cc2)CC1 (stereo not shown) [Example 95, 2-(5-Chloro-1H-indazol-7-yl)-2-((4-(4-fluorophenyl)-1-methylpiperidin-4-yl)methoxy)acetonitrile] | 0.01 to 100 | 0.01 to 100
CC(OCC1(c2ccc(F)cc2)CCN(C)CC1)c1cc(Cl)cc2[nH]c(=O)[nH]c12 (stereo not shown) [Example 96, 6-Chloro-4-(1-((4-(4-fluorophenyl)-1-methylpiperidin-4-yl)methoxy)ethyl)-1H-benzo[d]imidazol-2(3H)-one trifluoroacetic acid salt] | 100 to 300 | 0.01 to 100
CC(OCC1(c2ccc(F)cc2)CCN(C)CC1)c1cc(Cl)cc2[nH]c(=O)n(C)c12 (stereo not shown) [Example 97, 5-Chloro-7-(1-((4-(4-fluorophenyl)-1-methylpiperidin-4-yl)methoxy)ethyl)-1-methyl-1H-benzo[d]imidazol-2(3H)-one trifluoroacetic acid salt] | 100 to 300 | 0.01 to 100
CC(OCC1(c2ccc(F)cc2)CCN(C)CC1)c1cc(Cl)cc2c1[nH]c(=O)n2C (stereo not shown) [Example 98, 6-Chloro-4-(1-((4-(4-fluorophenyl)-1-methylpiperidin-4-yl)methoxy)ethyl)-1-methyl-1H-benzo[d]imidazol-2(3H)-one trifluoroacetic acid salt] | 0.01 to 100 | 0.01 to 100
C[C@@H](OCC1(c2ccc(F)cc2)CCNCC1)c1cc(Cl)cc2c(Cl)n[nH]c12 [Example 99, (R)-3,5-Dichloro-7-(1-((4-(4-fluorophenyl)piperidin-4-yl)methoxy)ethyl)-1H-indazole] | 0.01 to 100 | 0.01 to 100
C[C@@H](OCC1(c2ccc(F)cc2)CCN(C)CC1)c1cc(Cl)cc2c(Cl)n[nH]c12 [Example 100, (R)-3,5-Dichloro-7-(1-((4-(4-fluorophenyl)-1-methylpiperidin-4-yl)methoxy)ethyl)-1H-indazole] | 0.01 to 100 | 0.01 to 100
C[C@@H](OCC1(c2ccc(F)cc2)CCNCC1)c1cc(Br)cc2c(Br)n[nH]c12 [Example 101, (R)-3,5-Dibromo-7-(1-((4-(4-fluorophenyl)piperidin-4-yl)methoxy)ethyl)-1H-indazole] | 0.01 to 100 | 0.01 to 100
C[C@@H](OCC1(c2ccc(F)cc2)CCN(C)CC1)c1cc(Br)cc2c(Br)n[nH]c12 [Example 102, (R)-3,5-Dibromo-7-(1-((4-(4-fluorophenyl)-1-methylpiperidin-4-yl)methoxy)ethyl)-1H-indazole] | 0.01 to 100 | 0.01 to 100
Cc1n[nH]c2c([C@@H](C)OCC3(c4ccc(F)cc4)CCN(C)CC3)cc(Cl)cc12 [Example 103, (R)-5-Chloro-7-(1-((4-(4-fluorophenyl)-1-methylpiperidin-4-yl)methoxy)ethyl)-3-methyl-1H-indazole] | 0.01 to 100 | 0.01 to 100
C[C@@H](OCC1(c2ccc(F)cc2)CCNCC1)c1cc(Cl)cc2cn(CC3CC3)nc12 [Example 104] | 0.01 to 100 | 0.01 to 100
C[C@@H](OCC1(c2ccc(F)cc2)CCN(C)CC1)c1cc(Cl)cc2cn(CC3CC3)nc12 [Example 105, (R)-5-chloro-2-(cyclopropylmethyl)-7-(1-((4-(4-fluorophenyl)-1methylpiperidin-4-yl)methoxy)ethyl)-2H-indazole] | 0.01 to 100 | 0.01 to 100
